# Patent publication US10189830B2, “Alkyl-heteroaryl substituted quinone derivatives for treatment of oxidative stress disorders” (BioElectron Technology Corporation, priority 2013, dated 2019)
# Where two headings read alike, the source gives them in different places.
# Tested on: Human dermal fibroblasts from Friedreich's Ataxia patients
# Test: Rescue of BSO-stressed FRDA fibroblasts (Calcein AM viability screen)
# Format: cell-based
# Conditions: FRDA fibroblasts GM04078, 1 mM BSO, 48 h
# Description: An initial screen was performed to identify compounds effective for the amelioration of redox disorders. Test samples, 4 reference compounds (idebenone, decylubiquinone, Trolox and alpha-tocopherol), and solvent controls were tested for their ability to rescue FRDA fibroblasts stressed by addition of L-buthionine-(S,R)-sulfoximine (BSO), as described in Jauslin et al., Hum. Mol. Genet. 11(24):3055 (2002), Jauslin et al., FASEB J. 17:1972-4 (2003), and International Patent Application WO 2004/003565. […] This specific BSO-mediated cell death can be prevented by administration of antioxidants or molecules involved in the antioxidant pathway, such as alpha-tocopherol, selenium, or small molecule glutathione peroxidase mimetics. However, antioxidants differ in their potency, i.e. the concentration at which they are able to rescue BSO-stressed FRDA fibroblasts.
# MEM (a medium enriched in amino acids and vitamins, catalog no. 1-31F24-I) and Medium 199 (M199, catalog no. 1-21F22-I) with Earle's Balanced Salts, without phenol red, were purchased from Bioconcept. Fetal Calf Serum was obtained from PAA Laboratories. Basic fibroblast growth factor and epidermal growth factor were purchased from PeproTech. Penicillin-streptomycin-glutamine mix, L-buthionine (S,R)-sulfoximine, (+)-alpha-tocopherol, decylubiquinone, and insulin from bovine pancreas were purchased from Sigma. Trolox (6-Hydroxy-2,5,7,8-tetramethylchromane-2-carboxylic acid) was obtained from Fluka. Idebenone was obtained from Chemo Iberica. Calcein AM was purchased from Anaspec. Cell culture medium was made by combining 125 ml M199 EBS, 50 ml Fetal Calf Serum, 100 U/ml penicillin, 100 microgram/ml streptomycin, 2 mM glutamine, 10 microgram/ml insulin, 10 ng/ml EGF, and 10 ng/ml bFGF; MEM EBS was added to make the volume up to 500 ml. A 10 mM BSO solution was prepared by dissolving 444 mg BSO in 200 ml of medium (Invitrogen, Carlsbad, Ca.) with subsequent filter-sterilization. During the course of the experiments, this solution was stored at +4° C. The cells were obtained from the Coriell Cell Repositories (Camden, N.J.; repository number GM04078) and grown in 10 cm tissue culture plates. Every third day, they were split at a 1:3 ratio.
# The test samples were supplied in 1.5 ml glass vials. The compounds were diluted with DMSO, ethanol or PBS to result in a 5 mM stock solution. Once dissolved, they were stored at −20° C. Reference antioxidants (idebenone, decylubiquinone, alpha-tocopherol and Trolox) were dissolved in DMSO.
# Test samples were screened according to the following protocol:
# A culture with FRDA fibroblasts was started from a 1 ml vial with approximately 500,000 cells stored in liquid nitrogen. Cells were propagated in 10 cm cell culture dishes by splitting every third day in a ratio of 1:3 until nine plates were available. Once confluent, fibroblasts were harvested. For 54 micro titer plates (96 well-MTP) a total of 14.3 million cells (passage eight) were re-suspended in 480 ml medium, corresponding to 100 microliters medium with 3,000 cells/well. The remaining cells were distributed in 10 cm cell culture plates (500,000 cells/plate) for propagation. The plates were incubated overnight at 37° C. in a atmosphere with 95% humidity and 5% CO2 to allow attachment of the cells to the culture plate.
# 10% DMSO (242.5 microliters) was added to a well of the microtiter plate. The test compounds were unfrozen, and 7.5 microliters of a 5 mM stock solution was dissolved in the well containing 242.5 microliters of 10% DMSO, resulting in a 150 micromolar master solution. Serial dilutions from the master solution were made. The period between the single dilution steps was kept as short as possible (generally less than 30 seconds). At least 4 hours after attachment into MTP, cells were then treated with the various compound dilutions.
# Plates were kept overnight in the cell culture incubator. […]
# [1] = Homo sapiens, average, compounds of the invention, read-out: Ec50 Average
# [2] = Homo sapiens, average of three values, control compounds, read-out: EC50 Average
# [3] = Homo sapiens, first of three experiments, read-out: EC50 Value 1
# [4] = Homo sapiens, second of three experiments, read-out: EC50 Value 2
# [5] = Homo sapiens, third of three experiments, read-out: EC50 Value 3
Compound,EC50 [1] [nM],further results
CC1=C(C)C(=O)C(CCCc2nc3ccc(Cl)cc3[nH]2)=C(C)C1=O,6,–
CC1=C(C)C(=O)C(CCCc2nc3ccccc3[nH]2)=C(C)C1=O,14,–
CC1=C(C)C(=O)C(CCCc2nc3ccc(F)cc3[nH]2)=C(C)C1=O,29,–
CC1=C(C)C(=O)C(CCn2cnc3ccccc32)=C(C)C1=O,28,–
CC1=C(C)C(=O)C(CCCc2nc3ccccc3n2C)=C(C)C1=O,25,–
CC1=C(C)C(=O)C(CCCc2nc3ccccc3s2)=C(C)C1=O,6,–
CC1=C(C)C(=O)C(CCCc2nc3ccccc3o2)=C(C)C1=O,20,–
CC1=C(C)C(=O)C(CCn2c(C)nc3ccccc32)=C(C)C1=O,49,–
CC1=C(C)C(=O)C(CCCn2cnc3ccccc32)=C(C)C1=O,21,–
CC1=C(C)C(=O)C(CCCn2c(C)nc3ccccc32)=C(C)C1=O,26,–
CC1=C(C)C(=O)C(CCCn2cncn2)=C(C)C1=O,426,–
CC1=C(C)C(=O)C(CCCc2nc3cc(C(F)(F)F)ccc3[nH]2)=C(C)C1=O,8,–
CC1=C(C)C(=O)C(CCCc2nc3cccc(C)c3[nH]2)=C(C)C1=O,7,–
CC1=C(C)C(=O)C(CCCc2nc3ccc(F)cc3o2)=C(C)C1=O,10,–
CC1=C(C)C(=O)C(CCc2nc3ccccc3s2)=C(C)C1=O,6,–
CC1=C(C)C(=O)C(CCCc2nc3ccc(C)cc3o2)=C(C)C1=O,7,–
CC1=C(C)C(=O)C(CCCc2nc3cc(F)ccc3[nH]2)=C(C)C1=O,9,–

Compound,EC50 [1] [nM],further results
CC1=C(C)C(=O)C(CCCc2nc3cccc(F)c3[nH]2)=C(C)C1=O,18,–
CC1=C(C)C(=O)C(CCCc2nc3cc(Cl)ccc3s2)=C(C)C1=O,28,–
CC1=C(C)C(=O)C(CCc2nc3ccccc3o2)=C(C)C1=O,18,–
CC1=C(C)C(=O)C(CCc2nc3ccccc3[nH]2)=C(C)C1=O,20,–
CC1=C(C)C(=O)C(CCCc2nc3cc(C)ccc3[nH]2)=C(C)C1=O,21,–
CC1=C(C)C(=O)C(CCc2ncc(C)s2)=C(C)C1=O,27,–
CC1=C(C)C(=O)C(CCCc2nc3cc(C(F)(F)F)ccc3o2)=C(C)C1=O,27,–
CC1=C(C)C(=O)C(CCCc2nc3cccnc3[nH]2)=C(C)C1=O,113,–
CC1=C(C)C(=O)C(CCc2ncc[nH]2)=C(C)C1=O,225,–
CC1=C(C)C(=O)C(CCCc2nc3ccc(C(N)=O)cc3[nH]2)=C(C)C1=O,80,–
CC1=C(C)C(=O)C(CCCc2nc3ccc(C(=O)N4CCN(C)CC4)cc3[nH]2)=C(C)C1=O,92,–
CC1=C(C)C(=O)C(CCCc2nc3ccc(C(=O)NCCCO)cc3[nH]2)=C(C)C1=O,> 200,–
"COC1=C(OC)C(=O)C(CCCCCCCCCCO)=C(C)C1=O [Idebenone, reference compound]",–,EC50 [2]: 1200 nM; EC50 [3]: 1500 nM; EC50 [4]: 1000 nM; EC50 [5]: 1000 nM
"Cc1c(C)c2c(c(C)c1O)CCC(C)(C(=O)O)O2 (stereo not drawn) [Trolox, 6-Hydroxy-2,5,7,8-tetramethylchromane-2-carboxylic acid, reference compound]",–,EC50 [2]: 8700 nM; EC50 [3]: 9000 nM; EC50 [4]: 9000 nM; EC50 [5]: 8000 nM
"Cc1c(C)c2c(c(C)c1O)CC[C@@](C)(CCC[C@H](C)CCC[C@H](C)CCCC(C)C)O2 [alpha-tocopherol, (+)-alpha-tocopherol, reference compound]",–,"EC50 (average of three values, control compounds, read-out: EC50 Average): 300 nM; EC50 (first of three experiments, read-out: EC50 Value 1): 400 nM; EC50 (second of three experiments, read-out: EC50 Value 2): 150 nM; EC50 (third of three experiments, read-out: EC50 Value 3): 350 nM"
"CCCCCCCCCCC1=C(C)C(=O)C(OC)=C(OC)C1=O [decylubiquinone, reference compound]",–,EC50 [2]: 38 nM; EC50 [3]: 50 nM; EC50 [4]: 35 nM; EC50 [5]: 30 nM
